Experimental data as given in PubChem BioAssay (NCI).
Several values for one entry are separate records, joined by “and”; a condition that tells them apart may be missing. Equal values may be shown once.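 Compound exposure: 48 hours, 5 concentrations, 96-well plates. Here, GI50 denotes the concentration required for 50% inhibition of growth. TGI is the concentration that stops growth completely.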

Experiments:
Experiment in all cases: NCI anticancer screen, dose series, 48 h
CAKI-1 renal = system: CAKI-1 renal
MALME-3M melanoma = system: MALME-3M melanoma
MCF7 breast = system: MCF7 breast
MDA-MB-435 = system: MDA-MB-435
NCI-H522 lung = system: NCI-H522 lung
RPMI-8226 leukemia = system: RPMI-8226 leukemia
RXF 393 renal = system: RXF 393 renal
SF-268 CNS = system: SF-268 CNS
SF-539 CNS = system: SF-539 CNS
SK-OV-3 ovarian = system: SK-OV-3 ovarian

SMILES	GI50 (CAKI-1 renal)	TGI (CAKI-1 renal)	GI50 (MALME-3M melanoma)	TGI (MALME-3M melanoma)	GI50 (MCF7 breast)	TGI (MCF7 breast)	GI50 (MDA-MB-435)	TGI (MDA-MB-435)	GI50 (NCI-H522 lung)	TGI (NCI-H522 lung)	GI50 (RPMI-8226 leukemia)	TGI (RPMI-8226 leukemia)	GI50 (RXF 393 renal)	TGI (RXF 393 renal)	GI50 (SF-268 CNS)	TGI (SF-268 CNS)	GI50 (SF-539 CNS)	TGI (SF-539 CNS)	GI50 (SK-OV-3 ovarian)	TGI (SK-OV-3 ovarian)
O=S(=O)(NCCNC/C=C/c1ccc(Br)cc1)c1cccc2cnccc12	4.15 µM and 9.99 µM	18 µM and 27 µM	7.39 µM and 12.7 µM	23 µM and 26.9 µM	8.98 µM and 9.53 µM	25.1 µM and 25.4 µM	9.22 µM and 12.5 µM	25.2 µM and 25.6 µM	12.6 µM and 13.7 µM	26.6 µM and 28.3 µM	5.2 µM and 12 µM	25.3 µM and 35.2 µM	3.37 µM and 9.08 µM	15.6 µM and 22.3 µM	8.14 µM and 11.1 µM	22.1 µM and 25.7 µM	7.74 µM and 9.35 µM	21.9 µM and 22.6 µM	7.26 µM and 11.7 µM	21.1 µM and 25.1 µM
COc1ccc(C(OCC2OC(n3ccc(NC(=O)c4ccccc4)nc3=O)C(O)C2O)(c2ccccc2)c2ccccc2)cc1 (stereo not given)	–	5.79 µM	–	3.73 µM	–	4.26 µM	–	5.73 µM	–	5.61 µM	–	4.64 µM	–	10.8 µM	–	19.8 µM	–	3.94 µM	–	20.6 µM
CN1CCN(Cc2ccc(NC(=O)c3cncc(C#Cc4cnc(N)c5ccncc45)c3)cc2C(F)(F)F)CC1	1.59 µM	> 16.3 µM	0.106 µM	0.404 µM	1.93 µM	8.92 µM	0.218 µM	4 µM	0.897 µM	8.51 µM	1.09 µM	5.77 µM	0.516 µM	2.28 µM	0.972 µM	6.89 µM	0.484 µM	2.03 µM	0.687 µM	> 50 µM
